According to paper PMC4965013, “Open Source Drug Discovery with the Malaria Box Compound Collection for Neglected Diseases and Beyond” (PLoS Pathogens, 2016):
“And” between values parts separate entries of the source, which are not always exact repeats. Equal values may be shown once. Read-outs that look alike come from different tables or passages of the source.

Columns and labels:
[1] = tested on: NCI60 human tumor cell lines; test: NCI60 5-dose (dose-response) assay; type: cell-based; conditions: for MGLI50 = Mean Growth Log I50: 5-dose, mean over NCI60 panel; for _MID Log10GI50 / _MID Log10LC50 / _MID Log10TGI: mean over cell lines of one experiment
Description: Columns IE-KK. NCI: Misra group (data presented first in this paper). NCI60 anti-tumor cell activity. Methods: […] These 60 cell lines, along with others, have been developed at NCI and have been maintained and distributed for research purposes by NCI for over 25 years. The experimental readout provides both inhibition of cell growth and cell kill. The screen was originally designed to prioritize agents for further evaluation. […] This is the same as for the 5-dose assay, described on http://dtp.cancer.gov/branches/btb/ivclsp.html. […] Testing beyond the initial screen: There were 133 compounds that passed threshold to proceed to 5-dose (dose-response) (data are available for the 133 compounds at the DTP public website (dtp.cancer.gov) by searching either the MMV number or NSC number). After examination of the 5-dose data, 10 compounds were selected for repeat testing based generally on potency, differential cell activity or activity on an individual cell lines or cell line panel. A summary of the data for the 10 compounds of interest is in the table below.

[2] = biological target: PfPMT (Plasmodium falciparum, UniProt Q8IDQ9); test: PfPMT gene replacement yeast growth; conditions: 100µM
[3] = tested on: P. falciparum 3D7; test: [3H]-hypoxanthine growth inhibition, modified HCO3- or O2; type: cell-based; conditions: for IC50: Plasmodium falciparum
[4] = tested on: P. falciparum 3D7 trophozoites; test: Metabolomic fingerprint profiling LC-MS; type: cell-based, Plasmodium falciparum; set-up: UDP-D-glucose / ADP-D-glucose: unit not given here
[5] = tested on: P. falciparum; test: EC50 listed in S2 Table Metabolomics (used to set the concentration tested); type: cell-based; conditions: Plasmodium falciparum; EC50 used for Factor_XEC50 in metabolomics; read-out: EC50_nM
[6] = metabolite level change after treatment

Sequence of PfPMT (Q8IDQ9 whole entry): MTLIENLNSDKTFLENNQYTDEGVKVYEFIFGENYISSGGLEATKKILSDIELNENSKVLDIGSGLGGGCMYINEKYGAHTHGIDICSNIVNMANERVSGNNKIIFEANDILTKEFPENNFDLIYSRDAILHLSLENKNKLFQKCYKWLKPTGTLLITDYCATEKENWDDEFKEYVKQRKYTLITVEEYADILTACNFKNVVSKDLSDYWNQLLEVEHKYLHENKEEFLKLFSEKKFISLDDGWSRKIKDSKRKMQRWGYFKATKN

Structure (SMILES): Cc1ccc(OCCCCCCNCCO)c(C)c1 [MMV666020]
- MGLI50 = Mean Growth Log I50 [1]: -4.9
- _MID Log10GI50 ([1]; listed as 766672/2): -4.93 Molar and -4.86 Molar
- _MID Log10LC50 ([1]; listed as 766672/2): -4.21 Molar and -4.19 Molar
- _MID Log10TGI ([1]; listed as 766672/2): -4.56 Molar and -4.52 Molar

Structure (SMILES): CCCCCCc1cc2cc(-c3nc4ccccc4[nH]3)c(=Nc3ccccc3C)oc2cc1O [MMV666597]
- Notes (NCI60 5-dose activity pattern) [1]: Differential
- MGLI50 = Mean Growth Log I50 [1]: -5.57

Structure (SMILES): Oc1c(CN2CCN(c3ccccc3F)CC2)cc(Br)c2cccnc12 [MMV000760]
- Notes (NCI60 5-dose activity pattern) [1]: Differential
- MGLI50 = Mean Growth Log I50 [1]: -6.02
- _MID Log10GI50 ([1]; listed as 766634/2): -6.03 Molar and -6.0 Molar
- _MID Log10LC50 ([1]; listed as 766634/2): -4.04 Molar and -4.06 Molar
- _MID Log10TGI ([1]; listed as 766634/2): -4.67 Molar and -4.74 Molar

Structure (SMILES): CCOc1cc(Br)c(C(C)NC(=O)c2cccc(OC)c2)cc1OCC (stereo not shown) [MMV665796]
- MGLI50 = Mean Growth Log I50 [1]: -5
- _MID Log10LC50 [1]: -4.0 Molar
- _MID Log10GI50 ([1]; listed as 766556/2): -5.02 Molar and -4.97 Molar
- _MID Log10TGI ([1]; listed as 766556/2): -4.07 Molar and -4.08 Molar

Structure (SMILES): Cc1ccc2c(C)nc(Nc3nc(C)cc(-c4ccccc4)n3)nc2c1 [MMV007041]
- candidate inhibitors of PfPMT activity (yeast functional assay) [2]: candidate inhibitors of PfPMT activity

Structure (SMILES): COc1cc(C(=O)ON=C(N)Cc2cccc3ccccc23)cc(OC)c1OC [MMV666687]
- candidate inhibitors of PfPMT activity (yeast functional assay) [2]: candidate inhibitors of PfPMT activity

Structure (SMILES): COc1cccc(C(=O)NC(c2ccc(C)cc2)c2cc(Cl)c3cccnc3c2O)c1 (stereo not shown) [MMV665969]
- MGLI50 = Mean Growth Log I50 [1]: -6.29
- _MID Log10GI50 [1]: -6.3 Molar
- _MID Log10LC50 [1]: -4.16 Molar
- _MID Log10TGI [1]: -4.91 Molar

Structure (SMILES): CCC(c1ccccc1)c1nn2c(-c3cccs3)nnc2s1 (stereo not shown) [MMV665876]
- fold change (IC50normal/ IC50hypoxia) [3]: 6.3
- IC50 ([3]; 3D7, read-out: P. falciparum 3D7 IC50 1% O2, 1% O2 hypoxia): 66 nM
- IC50 ([3]; 3D7, read-out: P. falciparum 3D7 IC50 5% O2): 415 nM
- Acetyllysine ([4]; S2 Table Metabolomics, metabolite Acetyllysine): 0.283
- N-acetyl-L-ornithine ([4]; S2 Table Metabolomics, metabolite N-acetyl-L-ornithine): 0.02574
- N-carbamoyl-L-aspartate ([4]; S2 Table Metabolomics, metabolite N-carbamoyl-L-aspartate): 2.073
- NADPH ([4]; S2 Table Metabolomics, metabolite NADPH): -0.7617
- dAMP ([4]; S2 Table Metabolomics, metabolite dAMP): 0.5954
- dCMP ([4]; S2 Table Metabolomics, metabolite dCMP): -0.9145
- dTDP ([4]; S2 Table Metabolomics, metabolite dTDP): -1.527
- dTMP ([4]; S2 Table Metabolomics, metabolite dTMP): -1.62
- dTTP ([4]; S2 Table Metabolomics, metabolite dTTP): -1.561
- dihydroorotate ([4]; S2 Table Metabolomics, metabolite dihydroorotate): 2.966
- orotate ([4]; S2 Table Metabolomics, metabolite orotate): -1.924
- DLH ([4]; S2 Table Metabolomics, peptide DLH): -0.4979
- DLS/SDL/SID ([4]; S2 Table Metabolomics, peptide DLS/SDL/SID): -0.4746
- PD ([4]; S2 Table Metabolomics, peptide PD): 0.3937
- PEE ([4]; S2 Table Metabolomics, peptide PEE): -0.2764
- PVNF ([4]; S2 Table Metabolomics, peptide PVNF): -2.041
- 3-phosphoglycerate ([4]; metabolite 3-phosphoglycerate, S2 Table Metabolomics): -0.3031
- ADP-D-glucose ([4]; metabolite ADP-D-glucose, S2 Table Metabolomics): -0.09411
- ATP ([4]; metabolite ATP, S2 Table Metabolomics): -0.3796
- CDP ([4]; metabolite CDP, S2 Table Metabolomics, change in metabolite level after compound treatment): -0.8385
- D-sedoheptulose-1/7-phosphate ([4]; metabolite D-sedoheptulose-1/7-phosphate, S2 Table Metabolomics, change in metabolite level after compound treatment): 0.09562
- FAD ([4]; metabolite FAD, S2 Table Metabolomics): 0.1414
- GMP ([4]; metabolite GMP, S2 Table Metabolomics, change in metabolite level after compound treatment): -0.3833
- NAD+ ([4]; metabolite NAD+, S2 Table Metabolomics): -0.3556
- NADP+ ([4]; metabolite NADP+, S2 Table Metabolomics): -0.2262
- Octoluse Bisphosphate ([4]; metabolite Octoluse Bisphosphate, S2 Table Metabolomics, change in metabolite level after compound treatment): -0.1952
- Pyroglutamic acid ([4]; metabolite Pyroglutamic acid, S2 Table Metabolomics): -0.02059
- UDP-D-glucose ([4]; metabolite UDP-D-glucose, S2 Table Metabolomics): -0.01878
- UDP-D-glucuronate ([4]; metabolite UDP-D-glucuronate, S2 Table Metabolomics): -0.4807
- UDP-N-acetyl-glucosamine ([4]; metabolite UDP-N-acetyl-glucosamine, S2 Table Metabolomics): -0.2752
- UDP ([4]; metabolite UDP, S2 Table Metabolomics, change in metabolite level after compound treatment): -1.799
- UMP ([4]; metabolite UMP, S2 Table Metabolomics, change in metabolite level after compound treatment): -3.164
- UTP ([4]; metabolite UTP, S2 Table Metabolomics, change in metabolite level after compound treatment): -2.138
- a-ketoglutarate ([4]; metabolite a-ketoglutarate, S2 Table Metabolomics): -0.08894
- citrate/isocitrate ([4]; metabolite citrate/isocitrate, S2 Table Metabolomics, change in metabolite level after compound treatment): -0.02094
- cytidine ([4]; metabolite cytidine, S2 Table Metabolomics): 0.3021
- dATP ([4]; metabolite dATP, S2 Table Metabolomics): 0.315
- dGMP/AMP ([4]; metabolite dGMP/AMP, S2 Table Metabolomics, change in metabolite level after compound treatment): 0.04047
- fumarate ([4]; metabolite fumarate, S2 Table Metabolomics, change in metabolite level after compound treatment): 0.2534
- glucose-1/6-phosphate ([4]; metabolite glucose-1/6-phosphate, S2 Table Metabolomics, change in metabolite level after compound treatment): -0.2061
- glycerate ([4]; metabolite glycerate, S2 Table Metabolomics, change in metabolite level after compound treatment): 0.1397
- guanine ([4]; metabolite guanine, S2 Table Metabolomics, change in metabolite level after compound treatment): 0.4421
- guanosine ([4]; metabolite guanosine, S2 Table Metabolomics, change in metabolite level after compound treatment): 0.6466
- hypoxanthine ([4]; metabolite hypoxanthine, S2 Table Metabolomics): -0.006623
- indole ([4]; metabolite indole, S2 Table Metabolomics): 0.04311
- inosine ([4]; metabolite inosine, S2 Table Metabolomics, change in metabolite level after compound treatment): 0.2618
- 2_3-Diphosphoglyceric acid [4, 6]: -0.3467
- 4-phosphopantothenate [4, 6]: -0.1285
- 6-phospho-D-gluconate [4, 6]: 0.112
- FMN [4, 6]: -0.3509
- IMP [4, 6]: 0.3458
- Pyrophosphate [4, 6]: -0.3973
- Sedoheptoluse bisphosphate [4, 6]: 0.1676
- cyclic-AMP [4, 6]: -0.04329
- glutathione disulfide [4, 6]: 0.137
- lactate [4, 6]: -0.1203
- myo-inositol [4, 6]: 0.267
- nicotinate ([4]; metabolite nicotinate, S2 Table Metabolomics): 0.1101
- ornithine ([4]; metabolite ornithine, S2 Table Metabolomics): 0.02403
- phosphoenolpyruvate ([4]; metabolite phosphoenolpyruvate, S2 Table Metabolomics): -0.2926
- pyruvate ([4]; metabolite pyruvate, S2 Table Metabolomics, change in metabolite level after compound treatment): 0.1322
- ribose-phosphate ([4]; metabolite ribose-phosphate, S2 Table Metabolomics): -0.01159
- sarcosine/alanine ([4]; metabolite sarcosine/alanine, S2 Table Metabolomics, change in metabolite level after compound treatment): 0.3044
- sn-glycerol-3-phosphate ([4]; metabolite sn-glycerol-3-phosphate, S2 Table Metabolomics): -0.401
- succinate/methylmalonic acid ([4]; metabolite succinate/methylmalonic acid, S2 Table Metabolomics, change in metabolite level after compound treatment): 0.1519
- uridine ([4]; metabolite uridine, S2 Table Metabolomics, change in metabolite level after compound treatment): -0.6108
- xanthosine ([4]; metabolite xanthosine, S2 Table Metabolomics, change in metabolite level after compound treatment): 0.3254
- EC50 [5]: 259 nM

Structure (SMILES): CCOC(=O)c1cnc2ccc(OC)cc2c1Nc1ccc(N2CCN(C)CC2)cc1 [MMV000704]
- candidate inhibitors of PfPMT activity (yeast functional assay) [2]: candidate inhibitors of PfPMT activity

Structure (SMILES): CCOc1cc(Cl)c(C(C)NC(=O)c2cccc(OC)c2)cc1OCC (stereo not shown) [MMV665803]
- MGLI50 = Mean Growth Log I50 [1]: -5.01
- _MID Log10LC50 [1]: -4.0 Molar
- _MID Log10GI50 ([1]; listed as 766546/2): -5.1 Molar and -4.93 Molar
- _MID Log10TGI ([1]; listed as 766546/2): -4.1 Molar and -4.05 Molar

Structure (SMILES): CN1c2ccccc2N(C)C1c1ccc2c(c1)OCO2 [MMV666009]
- candidate inhibitors of PfPMT activity (yeast functional assay) [2]: candidate inhibitors of PfPMT activity

Structure (SMILES): O=C(Nc1ccc(-c2nc3cc(NC(=O)c4ccc(Cl)cc4)ccc3[nH]2)cc1)c1ccc(Cl)cc1 [MMV006962]
- Notes (NCI60 5-dose activity pattern) [1]: Differential, CNS
- MGLI50 = Mean Growth Log I50 [1]: -5.61

Structure (SMILES): CCOc1ccc(Nc2c3ccccc3nc3ccccc23)cc1 [MMV000304]
- candidate inhibitors of PfPMT activity (yeast functional assay) [2]: candidate inhibitors of PfPMT activity

Structure (SMILES): N=c1n(CCN2CCCCC2)c2ccccc2n1CC(=O)c1ccc(Cl)c(Cl)c1 [MMV396723]
- candidate inhibitors of PfPMT activity (yeast functional assay) [2]: candidate inhibitors of PfPMT activity

Structure (SMILES): COc1ccc(C2c3ccc4ccccc4c3Oc3ncn(CCCN(C)C)c(=N)c32)cc1 (stereo not shown) [MMV667491]
- candidate inhibitors of PfPMT activity (yeast functional assay) [2]: candidate inhibitors of PfPMT activity

Structure (SMILES): CCCCCCn1c(=N)n(CC(O)COc2cccc(C)c2)c2ccccc21 (stereo not shown) [MMV000445]
- candidate inhibitors of PfPMT activity (yeast functional assay) [2]: candidate inhibitors of PfPMT activity

Structure (SMILES): OC(CNCC1CCCO1)Cn1c2ccc(Cl)cc2c2cc(Cl)ccc21 (stereo not shown) [MMV396736]
- candidate inhibitors of PfPMT activity (yeast functional assay) [2]: candidate inhibitors of PfPMT activity

Structure (SMILES): O=C(NC1CCN(Cc2ccccc2)CC1)c1cc(-c2ccncc2)nc2ccc(Cl)cc12 [MMV020275]
- MGLI50 = Mean Growth Log I50 [1]: -4.93
- _MID Log10GI50 ([1]; listed as 766585/2): -4.95 Molar and -4.91 Molar
- _MID Log10LC50 ([1]; listed as 766585/2): -4.05 Molar and -4.01 Molar
- _MID Log10TGI ([1]; listed as 766585/2): -4.34 Molar and -4.19 Molar
